# Test results published in US10167262B2, “Herbicidal substituted 3-arylpyrazoles” (FMC CORPORATION, priority 2014, dated 2019).
# Like-named read-outs stand apart in the source and are kept apart here.
# Legend:
# Assay type in all cases: in vivo
# [1] = system: barnyardgrass (Echinochloa crus-galli); assay: Test A pre-/postemergence greenhouse herbicide test, visual injury rating 0-100; conditions: Echinochloa crus-galli, 240 h, 1000 g ai/ha, read-out: Plant response rating (0 to 100 scale), Barnyardgrass
# Summary of the method: (§1)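 Each species was treated both before emergence, via soil spray onto a loam–sand blend, and after emergence at the one- to two-leaf stage. Plants stayed in the greenhouse around 10 days before visual injury assessment.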
# [2] = system: corn (Zea mays); assay: as above; conditions: Zea mays, 240 h, 1000 g ai/ha, read-out: Plant response rating (0 to 100 scale), Corn
# Summary of the method: as §1
# [3] = system: giant foxtail (Setaria faberii); assay: as above; conditions: Setaria faberi, 240 h, 1000 g ai/ha, read-out: Plant response rating (0 to 100 scale), Foxtail, Giant
# Summary of the method: as §1
# [4] = system: large (Lg) crabgrass (Digitaria sanguinalis); assay: as above; conditions: Digitaria sanguinalis, 240 h, 1000 g ai/ha, read-out: Plant response rating (0 to 100 scale), Crabgrass, Large
# Summary of the method: as §1
# [5] = system: morningglory (Ipomoea spp.); assay: as above; conditions: Ipomoea, 240 h, 1000 g ai/ha, read-out: Plant response rating (0 to 100 scale), Morningglory
# Summary of the method: as §1
# [6] = system: pigweed (Amaranthus retroflexus); assay: as above; conditions: Amaranthus retroflexus, 240 h, 1000 g ai/ha, read-out: Plant response rating (0 to 100 scale), Pigweed
# Summary of the method: as §1
# [7] = system: velvetleaf (Abutilon theophrasti); assay: as above; conditions: Abutilon theophrasti, 240 h, 1000 g ai/ha, read-out: Plant response rating (0 to 100 scale), Velvetleaf
# Summary of the method: as §1
# [8] = system: wheat (Triticum aestivum); assay: as above; conditions: Triticum aestivum, 240 h, 1000 g ai/ha, read-out: Plant response rating (0 to 100 scale), Wheat
# Summary of the method: as §1
# [9] = system: Italian ryegrass (Lolium multiflorum); assay: Test C pre-/postemergence greenhouse test, plant response rating 0-100; conditions: Lolium multiflorum; for pest or weed control at 62 g/ha: 62 g ai/ha; for pest or weed control at 125 g/ha: 125 g ai/ha; for pest or weed control at 250 g/ha: 250 g ai/ha
# Source text: (§2) Seeds of plant species selected from blackgrass (Alopecurus myosuroides), Italian ryegrass (Lolium multiflorum), winter wheat (Triticum aestivum), galium (catchweed bedstraw, Galium aparine), corn (Zea mays), large (Lg) crabgrass (Digitaria sanguinalis), giant foxtail (Setaria faberii), johnsongrass (Sorghum halepense), lambsquarters (Chenopodium album), morningglory (Ipomoea coccinea), yellow nutsedge (Cyperus esculentus), pigweed (Amaranthus retroflexus), ragweed (common ragweed, Ambrosia elatior), soybean (Glycine max), barnyardgrass (Echinochloa crus-galli), oilseed rape (Brassica napus), waterhemp (common waterhemp, Amaranthus rudis), and velvetleaf (Abutilon theophrasti) were planted into a blend of loam soil and sand and treated preemergence with test chemicals formulated in a non-phytotoxic solvent mixture which included a surfactant.
# (§3) At the same time, plants selected from these crop and weed species and also winter barley (Hordeum vulgare), bermudagrass (Cynodon dactylon), downy bromegrass (Bromus tectorum), canarygrass (Phalaris minor), cocklebur (common cocklebur, Xanthium strumarium), woolly cupgrass (Eriochloa villosa), deadnettle (henbit deadnettle, Lamium amplexicaule), green foxtail (Setaria viridis), goosegrass (Eleusine indica), surinam grass (Brachiaria decumbens), windgrass (Apera spica-venti), chickweed (common chickweed, Stellaria media), kochia (Kochia scoparia), and wild oat (Avena fatua), were planted in pots containing Redi-Earth® planting medium (Scotts Company, 14111 Scottslawn Road, Marysville, Ohio 43041) comprising spaghnum peat moss, vermiculite, wetting agent and starter nutrients and treated with postemergence applications of test chemicals formulated in the same manner. Plants ranged in height from 2 to 18 cm (1- to 4-leaf stage) for postemergence treatments. Treated plants and controls were maintained in a greenhouse for 13 to 15 days, after which time all species were compared to controls and visually evaluated. Plant response ratings, summarized in Table C, are based on a scale of 0 to 100 where 0 is no effect and 100 is complete control. A dash (-) response means no test result.
# [10] = system: corn (Zea mays); assay: as above; conditions: Zea mays; for Corn plant response rating (crop injury, 0 = no effect, 100 = complete kill) at 250 g/ha: 250 g ai/ha
# Source text: as §2, §3
# [11] = system: pigweed (Amaranthus retroflexus); assay: as above; conditions: Amaranthus retroflexus; for pest or weed control at 62 g/ha: 62 g ai/ha; for pest or weed control at 125 g/ha: 125 g ai/ha; for pest or weed control at 250 g/ha: 250 g ai/ha
# Source text: as §2, §3
# [12] = system: ragweed (common ragweed, Ambrosia elatior); assay: as above; conditions: Ambrosia artemisiifolia; for pest or weed control at 62 g/ha: 62 g ai/ha; for pest or weed control at 250 g/ha: 250 g ai/ha
# Source text: as §2, §3
# [13] = system: velvetleaf (Abutilon theophrasti); assay: as above; conditions: Abutilon theophrasti; for pest or weed control at 62 g/ha: 62 g ai/ha; for pest or weed control at 125 g/ha: 125 g ai/ha; for pest or weed control at 250 g/ha: 250 g ai/ha
# Source text: as §2, §3
# [14] = post-emergence, Postemergence, read-out: Plant response rating (0 to 100), Ryegrass, Italian
# [15] = post-emergence, Postemergence, scale 0 to 100
# [16] = pre-emergence, Preemergence, read-out: Plant response rating, Ryegrass, Italian
# [17] = pre-emergence, Preemergence, 500 g ai/ha
# [18] = post-emergence, Postemergence, read-out: Plant response rating (0 to 100), Pigweed
# [19] = pre-emergence, Preemergence, read-out: Plant response rating, Pigweed
# [20] = post-emergence, Postemergence, read-out: Plant response rating (0 to 100), Velvetleaf
# [21] = pre-emergence, Preemergence, read-out: Plant response rating, Velvetleaf
smiles,measurement,setting,value
"Clc1cc(Cl)cc(-c2n[nH]cc2C(=NN2CCCC2)c2ccccc2)c1 [Compound 30, N-[[3-(3,5-dichlorophenyl)-1H-pyrazol-4-yl]phenylmethylene]-1-pyrrolidinamine]",pest or weed control at 1000 g/ha,"[1]; post-emergence, Postemergence",0%
same,pest or weed control at 1000 g/ha,"[1]; pre-emergence, Preemergence",0%
same,plant injury at 1000 g/ha,"[2]; post-emergence, Postemergence",0%
same,plant injury at 1000 g/ha,"[2]; pre-emergence, Preemergence",0%
same,pest or weed control at 1000 g/ha,"[3]; post-emergence, Postemergence",0%
same,pest or weed control at 1000 g/ha,"[3]; pre-emergence, Preemergence",0%
same,pest or weed control at 1000 g/ha,"[4]; post-emergence, Postemergence",0%
same,pest or weed control at 1000 g/ha,"[4]; pre-emergence, Preemergence",0%
same,pest or weed control at 1000 g/ha,"[5]; post-emergence, Postemergence",0%
same,pest or weed control at 1000 g/ha,"[5]; pre-emergence, Preemergence",0%
same,pest or weed control at 1000 g/ha,"[6]; post-emergence, Postemergence",100%
same,pest or weed control at 1000 g/ha,"[6]; pre-emergence, Preemergence",90%
same,pest or weed control at 1000 g/ha,"[7]; post-emergence, Postemergence",100%
same,pest or weed control at 1000 g/ha,"[7]; pre-emergence, Preemergence",0%
same,plant injury at 1000 g/ha,"[8]; post-emergence, Postemergence",0%
same,plant injury at 1000 g/ha,"[8]; pre-emergence, Preemergence",0%
same,pest or weed control at 62 g/ha,[9]; [14],0%
same,pest or weed control at 125 g/ha,[9]; [14],0%
same,pest or weed control at 250 g/ha,[9]; [15],0%
same,pest or weed control at 62 g/ha,[9]; [16],0%
same,pest or weed control at 125 g/ha,[9]; [16],0%
same,pest or weed control at 250 g/ha,"[9]; pre-emergence, Preemergence",0%
same,pest or weed control at 500 g/ha,[9]; [17],0%
same,plant injury at 31 g/ha,"[10]; post-emergence, Postemergence, 31 g ai/ha",0%
same,plant injury at 62 g/ha,"[10]; post-emergence, Postemergence, 62 g ai/ha",0%
same,plant injury at 125 g/ha,"[10]; post-emergence, Postemergence, 125 g ai/ha",0%
same,"Corn plant response rating (crop injury, 0 = no effect, 100 = complete kill) at 250 g/ha",[10]; [15],0%
same,"Corn plant response rating (crop injury, 0 = no effect, 100 = complete kill) at 62 g/ha","[10]; pre-emergence, Preemergence, 62 g ai/ha",0%
same,"Corn plant response rating (crop injury, 0 = no effect, 100 = complete kill) at 125 g/ha","[10]; pre-emergence, Preemergence, 125 g ai/ha",0%
same,"Corn plant response rating (crop injury, 0 = no effect, 100 = complete kill) at 250 g/ha","[10]; pre-emergence, Preemergence",0%
same,"Corn plant response rating (crop injury, 0 = no effect, 100 = complete kill) at 500 g/ha",[10]; [17],0%
same,pest or weed control at 62 g/ha,[11]; [18],100%
same,pest or weed control at 125 g/ha,[11]; [18],100%
same,pest or weed control at 250 g/ha,[11]; [15],100%
same,pest or weed control at 62 g/ha,[11]; [19],60%
same,pest or weed control at 125 g/ha,[11]; [19],98%
same,pest or weed control at 250 g/ha,"[11]; pre-emergence, Preemergence",100%
same,pest or weed control at 500 g/ha,[11]; [17],100%
same,pest or weed control at 62 g/ha,"[12]; post-emergence, Postemergence, read-out: Plant response rating (0 to 100), Ragweed",20%
same,pest or weed control at 125 g/ha,"[12]; post-emergence, Postemergence, 125 g ai/ha, read-out: Plant response rating (0 to 100), Ragweed",35%
same,pest or weed control at 250 g/ha,[12]; [15],90%
same,pest or weed control at 62 g/ha,"[12]; pre-emergence, Preemergence, read-out: Plant response rating, Ragweed",50%
same,pest or weed control at 250 g/ha,"[12]; pre-emergence, Preemergence",75%
same,pest or weed control at 500 g/ha,[12]; [17],100%
same,pest or weed control at 62 g/ha,[13]; [20],85%
same,pest or weed control at 125 g/ha,[13]; [20],85%
same,pest or weed control at 250 g/ha,[13]; [15],98%
same,pest or weed control at 62 g/ha,[13]; [21],65%
same,pest or weed control at 125 g/ha,[13]; [21],70%
same,pest or weed control at 250 g/ha,"[13]; pre-emergence, Preemergence",75%
same,pest or weed control at 500 g/ha,[13]; [17],100%
